# According to PubChem BioAssay (NCI):
#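 48-hour exposure; five concentrations; linearly interpolated endpoints. At the GI50, growth is halved. At the TGI there is no net growth.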
# Tested on: MCF7 breast
# Assay: NCI tumour cell line growth inhibition, 48 h
Structure (SMILES),GI50 [µM],TGI [µM]
COc1cc(Nc2c(C#N)cnc3cc(OCCCN4CCN(C)CC4)c(OC)cc23)c(Cl)cc1Cl,2.79,17.8
O=CN/C=C/c1cccc(O)c1,,> 68.4
Nc1ccc2c(SCc3ccc([N+](=O)[O-])cc3)c3ccccc3nc2c1,,27.6
O=c1ccn(C2CC(O)C(CO)O2)c(=O)[nH]1 (stereo not drawn),3000,> 5000
O=C(N/C(=C/c1ccc(Cl)cc1Cl)c1nc2ccccc2s1)c1ccccc1,,52.1
CCOC(=O)c1cc2c(n1Cc1cccc(OC)c1)-c1oncc1CCC2,0.385,> 100
COc1c(O)cc2oc(-c3ccc(O)cc3)cc(=O)c2c1O,,> 100
COc1cccc(-c2nn(-c3ccccc3)cc2-c2ccnc(NCCCNC(=O)Nc3ccc(Cl)c(Cl)c3)c2)c1,1.94,3.71
COc1cc2ccccc2oc1=O,,> 100
Nc1nc(N)c2nc(CNc3ccc(C(=O)NC(CC(=O)O)C(=O)O)cc3)cnc2n1 (stereo not drawn),0.631,> 100
COc1cc2c3c(n(CCCCN)c(=O)c2cc1OC)-c1cc2c(cc1C3=O)OCO2,0.0191,1.13
N#CCCN(CCCN(CCCN(C(=O)Nc1ccccc1)c1ccccc1)C(=O)Nc1ccccc1)C(=O)Nc1ccccc1,11.9,> 100
NC(=O)c1ccccc1Nc1ccc2nnc(-c3ccncc3)n2n1,3.1,16.1
COc1cccc2c1ccc1nc3cccc(C(=O)N[C@H](C)CN(C)C)c3nc12,0.0341,1.58
NC(=O)c1ccc(I)c(N=O)c1,39.6,> 100
COc1ccc2c(=O)cc(-c3ccncc3)oc2c1OC,,> 100

# Tested on: T-47D breast
# Assay: NCI tumour cell line growth inhibition, 48 h
Structure (SMILES),GI50 [µM],TGI [µM]
C[C@]12CCc3sc(NCCc4ccccc4)nc3C1=CC[C@@H]1[C@@H]2CC[C@]2(C)C(=O)CC[C@@H]12,3.05,25.2
COc1cccc(C2=C(c3c(C)n(C)c4ccccc34)C(=O)NC2=O)c1,8.83,> 25
CCN(Cc1ccc(F)cc1)c1ccc(CO)c(F)c1,1.35,8.31
O=C(Cn1c(=O)c(-c2ccccc2)nc2ccccc21)Nc1ccc(F)cc1,50.8,> 100
CN(C)CCNC(=O)c1cc([N+](=O)[O-])cc2c1Oc1ccccc1O2,,69.6
O=C1C(N2CC2)=C(N2CC2)C(=O)C(N2CC2)=C1N1CC1,0.659,23.8
O=C(O)C1OC1(c1cccc(Cl)c1)c1ccccc1Cl (stereo not drawn),,> 100
CCCCC[C@H]1C/C=C2/C(=O)C=C[C@@H]2C/C=C\CCCC(=O)O[C@@H](CCCCC)C/C=C2/C(=O)C=C[C@@H]2C/C=C\CCCC(=O)O1,0.236,0.819
O=C(Nc1cccc(-n2cc(-c3ccncc3)c(-c3cc(O)cc(Cl)c3)n2)c1)Nc1ccc(Cl)c(C(F)(F)F)c1,2.44,9.27
CNCCCn1c2c(c3ccc([N+](=O)[O-])cc3c1=O)C(=O)c1cc(OC)cnc1-2,0.0309,0.283
Cc1cc(Cl)ccc1Nc1nc(C(F)(F)F)ccc1C(=O)N/N=C/c1ccc(Cl)cc1,2.17,9.26
COc1cc2oc3cc(=O)cc4oc(-c5ccccc5)cc(c2c2c1CCC(c1ccccc1)O2)c43 (stereo not drawn),,54.8
c1cc2n(n1)CCN2,,> 10000
COc1cc(Nc2c(C#N)cnc3cc(OCCCN4CCN(C)CC4)c(OC)cc23)c(Cl)cc1Cl,3.1,18.2
O=CN/C=C/c1cccc(O)c1,,98.7
Nc1ccc2c(SCc3ccc([N+](=O)[O-])cc3)c3ccccc3nc2c1,,22.6
O=c1ccn(C2CC(O)C(CO)O2)c(=O)[nH]1 (stereo not drawn),> 5000,> 5000
O=C(N/C(=C/c1ccc(Cl)cc1Cl)c1nc2ccccc2s1)c1ccccc1,,43.3
CCOC(=O)c1cc2c(n1Cc1cccc(OC)c1)-c1oncc1CCC2,1.27,> 100
COc1c(O)cc2oc(-c3ccc(O)cc3)cc(=O)c2c1O,,> 100
COc1cccc(-c2nn(-c3ccccc3)cc2-c2ccnc(NCCCNC(=O)Nc3ccc(Cl)c(Cl)c3)c2)c1,2.41,11.4
COc1cc2ccccc2oc1=O,,> 100
Nc1nc(N)c2nc(CNc3ccc(C(=O)NC(CC(=O)O)C(=O)O)cc3)cnc2n1 (stereo not drawn),> 65.6,> 100
COc1cc2c3c(n(CCCCN)c(=O)c2cc1OC)-c1cc2c(cc1C3=O)OCO2,1.22,10.3
N#CCCN(CCCN(CCCN(C(=O)Nc1ccccc1)c1ccccc1)C(=O)Nc1ccccc1)C(=O)Nc1ccccc1,> 100,> 100
NC(=O)c1ccccc1Nc1ccc2nnc(-c3ccncc3)n2n1,4.69,20.3
COc1cccc2c1ccc1nc3cccc(C(=O)N[C@H](C)CN(C)C)c3nc12,0.159,0.974
NC(=O)c1ccc(I)c(N=O)c1,32.3,87.8
COc1ccc2c(=O)cc(-c3ccncc3)oc2c1OC,,> 100

# Tested on: A498 renal
# Assay: NCI tumour cell line growth inhibition, 48 h
Structure (SMILES),GI50 [µM],TGI [µM]
C[C@]12CCc3sc(NCCc4ccccc4)nc3C1=CC[C@@H]1[C@@H]2CC[C@]2(C)C(=O)CC[C@@H]12,4.43,> 100
COc1cccc(C2=C(c3c(C)n(C)c4ccccc34)C(=O)NC2=O)c1,8.99,> 25
CCN(Cc1ccc(F)cc1)c1ccc(CO)c(F)c1,0.114,0.252
O=C(Cn1c(=O)c(-c2ccccc2)nc2ccccc21)Nc1ccc(F)cc1,13.7,97.9
CN(C)CCNC(=O)c1cc([N+](=O)[O-])cc2c1Oc1ccccc1O2,,> 100
O=C1C(N2CC2)=C(N2CC2)C(=O)C(N2CC2)=C1N1CC1,0.348,1.19
O=C(O)C1OC1(c1cccc(Cl)c1)c1ccccc1Cl (stereo not drawn),,> 100
CCCCC[C@H]1C/C=C2/C(=O)C=C[C@@H]2C/C=C\CCCC(=O)O[C@@H](CCCCC)C/C=C2/C(=O)C=C[C@@H]2C/C=C\CCCC(=O)O1,0.449,0.863
O=C(Nc1cccc(-n2cc(-c3ccncc3)c(-c3cc(O)cc(Cl)c3)n2)c1)Nc1ccc(Cl)c(C(F)(F)F)c1,3.9,15.5
CNCCCn1c2c(c3ccc([N+](=O)[O-])cc3c1=O)C(=O)c1cc(OC)cnc1-2,0.0338,0.276
Cc1cc(Cl)ccc1Nc1nc(C(F)(F)F)ccc1C(=O)N/N=C/c1ccc(Cl)cc1,1.91,6.13
COc1cc2oc3cc(=O)cc4oc(-c5ccccc5)cc(c2c2c1CCC(c1ccccc1)O2)c43 (stereo not drawn),,> 100
c1cc2n(n1)CCN2,,6270
COc1cc(Nc2c(C#N)cnc3cc(OCCCN4CCN(C)CC4)c(OC)cc23)c(Cl)cc1Cl,0.586,2.22
O=CN/C=C/c1cccc(O)c1,,> 76.8
Nc1ccc2c(SCc3ccc([N+](=O)[O-])cc3)c3ccccc3nc2c1,,49.2
O=c1ccn(C2CC(O)C(CO)O2)c(=O)[nH]1 (stereo not drawn),> 5000,> 5000
CCOC(=O)c1cc2c(n1Cc1cccc(OC)c1)-c1oncc1CCC2,0.881,17.6
COc1c(O)cc2oc(-c3ccc(O)cc3)cc(=O)c2c1O,,16.1
COc1cccc(-c2nn(-c3ccccc3)cc2-c2ccnc(NCCCNC(=O)Nc3ccc(Cl)c(Cl)c3)c2)c1,2.15,8.08
COc1cc2ccccc2oc1=O,,> 100
Nc1nc(N)c2nc(CNc3ccc(C(=O)NC(CC(=O)O)C(=O)O)cc3)cnc2n1 (stereo not drawn),13.3,> 100
COc1cc2c3c(n(CCCCN)c(=O)c2cc1OC)-c1cc2c(cc1C3=O)OCO2,7.81,17
N#CCCN(CCCN(CCCN(C(=O)Nc1ccccc1)c1ccccc1)C(=O)Nc1ccccc1)C(=O)Nc1ccccc1,,> 100
NC(=O)c1ccccc1Nc1ccc2nnc(-c3ccncc3)n2n1,14.2,27.2
COc1cccc2c1ccc1nc3cccc(C(=O)N[C@H](C)CN(C)C)c3nc12,0.0793,0.235
COc1ccc2c(=O)cc(-c3ccncc3)oc2c1OC,,49.8
